# Assay results reported in US20250367166A1, “NEXT GENERATION DIPROVOCIMS THAT ACTIVATE THE INNATE AND ADAPTIVE IMMUNE RESPONSE” (The Scripps Research Institute, priority 2022, published 2025).
# Read-outs that look alike come from different tables or passages of the source.
# Assays:
# TLR1/TLR2 [1] = target: TLR1/TLR2 (Mus musculus, UniProt Q9EPQ1+Q9QUN7); experiment: TNF-α release from thioglycolate-elicited mouse peritoneal macrophages (ELISA); settings: for Emax: 4 h, read-out: Efficacy (magnitude) of response versus diprovocim-1 (100%), mouse macrophages; for EC50: read-out: EC50 (nM) (mouse): EC50 TNF-α release from mouse macrophages
# Description: Thioglycolate-elicited macrophages were recovered 4 days after i.p. injection of 2 mL BBL thioglycolate medium, brewer modified (4%; BD Biosciences) by peritoneal lavage with 5 mL phosphate buffered saline (PBS). […] Cells were seeded onto 96-well plates at 1×10^3 cells per well and treated with systematically varied concentrations of the candidate compounds (dissolved in DMSO, and final assay DMSO concentrations (0.5%) were kept constant in all experiments) for 4 h. Ultra-pure LPS (dissolved in H2O, Enzo Life Sciences) was assessed alongside the compounds as a positive control and DMSO treated controls. […] Mouse TNF-α in the supernatants was measured by ELISA kits according to the manufacturer's instructions (eBioscience). EC50's were calculated by Graphpad Prism. All data is mean of duplicates and SD is within ±10% of mean. Mouse cells were from wild type C57BL/6J mice.
# TLR1/TLR2 [2] = target: TLR1/TLR2 (Homo sapiens, UniProt O60603+Q15399); experiment: TNF-α release from PMA-differentiated human THP-1 cells (ELISA); settings: for Emax: THP-1, 4 h, read-out: Efficacy (magnitude) of response versus diprovocim-1 (100%), THP-1; for EC50: read-out: EC50 (nM) (THP-1): EC50 TNF-α release from human THP-1 cells;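 on all read-outs here: cells exposed to graded compound concentrations for 4 h, TNF-α quantified in supernatant, LPS as positive and DMSO as negative control, values are duplicate means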
# TLR1/TLR2 (Homo sapiens, UniProt O60603+Q15399), sequence (Q15399 25-786): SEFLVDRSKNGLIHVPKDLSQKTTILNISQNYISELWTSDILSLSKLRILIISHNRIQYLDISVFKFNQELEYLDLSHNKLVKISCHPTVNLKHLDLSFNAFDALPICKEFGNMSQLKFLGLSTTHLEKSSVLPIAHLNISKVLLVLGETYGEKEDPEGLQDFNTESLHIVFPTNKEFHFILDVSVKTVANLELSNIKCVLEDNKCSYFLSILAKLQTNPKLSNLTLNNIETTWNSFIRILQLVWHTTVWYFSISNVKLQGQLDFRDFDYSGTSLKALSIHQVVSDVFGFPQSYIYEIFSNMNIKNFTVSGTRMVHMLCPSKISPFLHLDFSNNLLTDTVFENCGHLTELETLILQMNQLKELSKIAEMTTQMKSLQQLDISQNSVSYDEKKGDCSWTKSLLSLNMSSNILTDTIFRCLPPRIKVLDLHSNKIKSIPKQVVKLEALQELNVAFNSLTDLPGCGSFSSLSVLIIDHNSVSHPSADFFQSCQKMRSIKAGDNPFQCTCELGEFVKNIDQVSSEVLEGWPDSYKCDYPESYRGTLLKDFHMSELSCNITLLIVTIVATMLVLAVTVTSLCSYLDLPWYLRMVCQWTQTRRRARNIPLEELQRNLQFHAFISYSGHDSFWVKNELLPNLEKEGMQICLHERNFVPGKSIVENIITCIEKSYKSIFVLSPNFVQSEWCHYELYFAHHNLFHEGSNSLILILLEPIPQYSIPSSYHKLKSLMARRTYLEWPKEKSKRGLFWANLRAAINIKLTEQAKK
# TLR1/TLR2 (Homo sapiens, UniProt O60603+Q15399), sequence (O60603 21-784): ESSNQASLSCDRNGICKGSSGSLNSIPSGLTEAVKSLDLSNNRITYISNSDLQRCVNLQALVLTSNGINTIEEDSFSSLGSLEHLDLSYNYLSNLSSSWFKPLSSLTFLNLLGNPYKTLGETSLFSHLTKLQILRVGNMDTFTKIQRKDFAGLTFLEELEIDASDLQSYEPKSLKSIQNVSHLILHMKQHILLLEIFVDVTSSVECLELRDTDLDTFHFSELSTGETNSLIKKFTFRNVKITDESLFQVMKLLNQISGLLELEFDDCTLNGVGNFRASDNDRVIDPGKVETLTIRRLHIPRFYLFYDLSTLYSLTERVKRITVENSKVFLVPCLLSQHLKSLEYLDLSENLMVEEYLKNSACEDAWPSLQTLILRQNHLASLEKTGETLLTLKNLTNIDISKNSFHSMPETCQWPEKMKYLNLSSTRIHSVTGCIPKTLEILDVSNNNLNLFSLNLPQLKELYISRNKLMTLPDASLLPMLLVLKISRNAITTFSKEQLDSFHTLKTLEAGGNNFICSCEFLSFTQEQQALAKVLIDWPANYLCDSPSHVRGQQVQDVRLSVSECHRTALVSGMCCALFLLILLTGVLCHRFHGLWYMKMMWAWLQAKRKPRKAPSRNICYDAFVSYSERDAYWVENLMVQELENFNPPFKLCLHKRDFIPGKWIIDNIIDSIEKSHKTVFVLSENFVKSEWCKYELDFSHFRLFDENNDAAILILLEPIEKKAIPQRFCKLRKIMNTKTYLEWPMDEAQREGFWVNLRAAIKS
# Description: THP-1 (American Type Culture Collection) cells, a human monocytic leukemia cell line, were differentiated by treatment with 100 nM PMA (Sigma) in Roswell Park Memorial Institute (RPMI) cell culture medium [RPMI containing 10% vol/vol FBS (Gemini Bio Products), 1% penicillin and streptomycin (Life Technologies)] for 24 h. After that, the cells were washed with PBS and cultured in fresh RPMI cell culture medium for 24 h before use in studies. PMA-differentiated THP-1 cells were seeded onto 96-well plates at 0.5×10^5 cells per well and treated with systematically varied concentrations of the candidate compounds (dissolved in DMSO, and the final assay DMSO concentration (0.1%) was kept constant in all experiments) for 4 h. Ultra-pure LPS (dissolved in H2O, Enzo Life Sciences) was assessed alongside the compounds as a positive control and DMSO treated control was used as a negative control. Human TNF-α in the supernatants was measured by ELISA (eBioscience). This assay was used for establishing dose-response curves and measured EC50's. EC50's were calculated by Graphpad Prism. All data is the mean of duplicates and SD is within +10% of mean.
# TLR1/TLR2 (Mus musculus, UniProt Q9EPQ1+Q9QUN7), sequence (Q9EPQ1 26-795): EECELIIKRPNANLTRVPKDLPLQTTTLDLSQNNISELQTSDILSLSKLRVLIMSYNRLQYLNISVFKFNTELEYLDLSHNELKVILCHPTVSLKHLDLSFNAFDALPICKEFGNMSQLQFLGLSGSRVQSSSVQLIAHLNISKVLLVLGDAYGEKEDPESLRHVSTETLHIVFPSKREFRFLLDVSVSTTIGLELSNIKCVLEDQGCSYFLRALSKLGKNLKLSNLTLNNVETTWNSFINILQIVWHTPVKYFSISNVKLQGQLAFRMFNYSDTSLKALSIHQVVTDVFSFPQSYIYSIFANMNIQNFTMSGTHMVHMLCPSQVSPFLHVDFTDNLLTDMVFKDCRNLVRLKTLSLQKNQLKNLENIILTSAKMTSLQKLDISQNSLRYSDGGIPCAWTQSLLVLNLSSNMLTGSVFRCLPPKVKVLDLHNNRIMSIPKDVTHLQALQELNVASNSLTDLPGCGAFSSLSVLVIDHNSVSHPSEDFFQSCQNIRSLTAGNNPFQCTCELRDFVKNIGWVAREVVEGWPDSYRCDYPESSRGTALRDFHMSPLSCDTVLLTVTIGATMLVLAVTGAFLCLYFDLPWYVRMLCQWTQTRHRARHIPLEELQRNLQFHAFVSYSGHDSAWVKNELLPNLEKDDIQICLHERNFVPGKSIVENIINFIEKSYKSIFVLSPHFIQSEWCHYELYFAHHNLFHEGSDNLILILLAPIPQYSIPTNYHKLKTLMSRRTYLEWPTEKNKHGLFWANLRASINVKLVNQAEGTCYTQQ
# TLR1/TLR2 (Mus musculus, UniProt Q9EPQ1+Q9QUN7), sequence (Q9QUN7 25-784): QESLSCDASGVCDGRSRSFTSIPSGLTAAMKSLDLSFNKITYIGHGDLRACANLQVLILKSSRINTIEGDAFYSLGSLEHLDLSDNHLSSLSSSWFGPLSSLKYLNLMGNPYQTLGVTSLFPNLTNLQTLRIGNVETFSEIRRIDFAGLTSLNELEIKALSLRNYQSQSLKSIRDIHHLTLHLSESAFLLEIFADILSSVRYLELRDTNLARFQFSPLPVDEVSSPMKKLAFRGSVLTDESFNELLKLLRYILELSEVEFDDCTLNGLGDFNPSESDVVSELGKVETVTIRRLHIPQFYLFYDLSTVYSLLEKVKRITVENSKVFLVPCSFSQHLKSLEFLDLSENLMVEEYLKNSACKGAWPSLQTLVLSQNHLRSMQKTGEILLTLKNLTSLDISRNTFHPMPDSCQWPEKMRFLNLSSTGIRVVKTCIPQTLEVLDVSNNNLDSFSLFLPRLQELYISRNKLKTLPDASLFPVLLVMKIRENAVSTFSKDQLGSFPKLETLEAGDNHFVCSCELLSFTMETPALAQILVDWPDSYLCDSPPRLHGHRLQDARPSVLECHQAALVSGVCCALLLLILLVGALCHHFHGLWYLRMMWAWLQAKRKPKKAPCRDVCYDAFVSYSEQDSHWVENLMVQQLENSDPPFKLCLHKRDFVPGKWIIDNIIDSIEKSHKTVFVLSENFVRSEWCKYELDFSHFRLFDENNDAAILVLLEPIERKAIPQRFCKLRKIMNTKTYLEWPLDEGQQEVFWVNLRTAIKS
SMILES,EC50 (TLR1/TLR2 [1]; Table 3) [nM],EC50 (TLR1/TLR2 [2]; Table 3) [nM],EC50 (TLR1/TLR2 [1]; Table 4) [nM],reduction in activity relative to diprovocim-1 (TLR1/TLR2 [2]),EC50 (TLR1/TLR2 [2]; Table 4) [nM],Emax (TLR1/TLR2 [1]) [%],Emax (TLR1/TLR2 [2]) [%],EC50 (TLR1/TLR2 [1]; Table 5) [nM],EC50 (TLR1/TLR2 [2]; Table 5) [nM]
"C[C@H](NC(=O)OC(C)(C)C)C(=O)OCCCCCCCCCCCCNC(=O)[C@@H]1CN(C(=O)c2ccc(C(=O)N3C[C@@H](C(=O)N[C@H]4C[C@@H]4c4ccccc4)[C@H](C(=O)N[C@H]4C[C@@H]4c4ccccc4)C3)cc2)C[C@H]1C(=O)N[C@H]1C[C@@H]1c1ccccc1 [Compound 57, (S)-12-((3S,4S)-1-(4-((3S,4S)-3,4-Bis(((1S,2R)-2-phenylcyclopropyl)carbamoyl)pyrrolidine-1-carbonyl)-benzoyl)-4-(((1S,2R)-2-phenylcyclopropyl)carbamoyl)-pyrrolidine-3-carboxamido)-dodecyl 2-((tert-butoxycarbonyl)amino)propanoate]",–,–,–,–,–,200,80,0.67,0.25
"C[C@@H](NC(=O)OC(C)(C)C)C(=O)OCCCCCCCCCCCCNC(=O)[C@@H]1CN(C(=O)c2ccc(C(=O)N3C[C@@H](C(=O)N[C@H]4C[C@@H]4c4ccccc4)[C@H](C(=O)N[C@H]4C[C@@H]4c4ccccc4)C3)cc2)C[C@H]1C(=O)N[C@H]1C[C@@H]1c1ccccc1 [Compound 58, 12-((3S,4S)-1-(4-((3S,4S)-3,4-Bis(((1S,2R)-2-phenyl-cyclopropyl)carbamoyl)pyrrolidine-1-carbonyl)-benzoyl)-4-(((1S,2R)-2-phenylcyclopropyl)carbamoyl)-pyrrolidine-3-carboxamido)-dodecyl (tert-butoxycarbonyl)-D-alaninate]",–,–,–,–,–,200,110,5,1.7
"CC(C)[C@H](NC(=O)OC(C)(C)C)C(=O)OCCCCCCCCCCCCNC(=O)[C@@H]1CN(C(=O)c2ccc(C(=O)N3C[C@@H](C(=O)N[C@H]4C[C@@H]4c4ccccc4)[C@H](C(=O)N[C@H]4C[C@@H]4c4ccccc4)C3)cc2)C[C@H]1C(=O)N[C@H]1C[C@@H]1c1ccccc1 [Compound 59, (S)-12-((3S,4S)-1-(4-((3S,4S)-3,4-Bis(((1S,2R)-2-phenylcyclopropyl)carbamoyl)pyrrolidine-1-carbonyl)-benzoyl)-4-(((1S,2R)-2-phenylcyclopropyl)carbamoyl)-pyrrolidine-3-carboxamido)-dodecyl 2-((tert-butoxycarbonyl)amino)-3-methylbutanoate]",–,–,–,–,–,180,100,19,1.8
"CC(C)(C)OC(=O)N1CCC[C@H]1C(=O)OCCCCCCCCCCCCNC(=O)[C@@H]1CN(C(=O)c2ccc(C(=O)N3C[C@@H](C(=O)N[C@H]4C[C@@H]4c4ccccc4)[C@H](C(=O)N[C@H]4C[C@@H]4c4ccccc4)C3)cc2)C[C@H]1C(=O)N[C@H]1C[C@@H]1c1ccccc1 [Compound 60, (S)-2-(12-((3S,4S)-1-(4-((3S,4S)-3,4-Bis(((1S,2R)-2-phenylcyclopropyl)carbamoyl)pyrrolidine-1-carbonyl)-benzoyl)-4-(((1S,2R)-2-phenylcyclopropyl)carbamoyl)-pyrrolidine-3-carboxamido)-dodecyl) 1-tert-butyl pyrrolidine-1,2-dicarboxylate]",–,–,–,–,–,100,90,9.2,0.94
"CC[C@H](C)[C@H](NC(=O)OC(C)(C)C)C(=O)OCCCCCCCCCCCCNC(=O)[C@@H]1CN(C(=O)c2ccc(C(=O)N3C[C@@H](C(=O)N[C@H]4C[C@@H]4c4ccccc4)[C@H](C(=O)N[C@H]4C[C@@H]4c4ccccc4)C3)cc2)C[C@H]1C(=O)N[C@H]1C[C@@H]1c1ccccc1 [Compound 61, (2S,3S)-12-((3S,4S)-1-(4-((3S,4S)-3,4-Bis(((1S,2R)-2-phenylcyclopropyl)carbamoyl)pyrrolidine-1-carbonyl)-benzoyl)-4-(((1S,2R)-2-phenylcyclopropyl)carbamoyl)-pyrrolidine-3-carboxamido)-dodecyl 2-((tert-butoxy-carbonyl)amino)-3-methylpentanoate]",–,–,–,–,–,140,100,50,9
"CC(C)(C)OC(=O)NC1(C(=O)OCCCCCCCCCCCCNC(=O)[C@@H]2CN(C(=O)c3ccc(C(=O)N4C[C@@H](C(=O)N[C@H]5C[C@@H]5c5ccccc5)[C@H](C(=O)N[C@H]5C[C@@H]5c5ccccc5)C4)cc3)C[C@H]2C(=O)N[C@H]2C[C@@H]2c2ccccc2)CC1 [Compound 62, 12-((3S,4S)-1-(4-((3S,4S)-3,4-Bis(((1S,2R)-2-phenylcyclopropyl)carbamoyl)pyrrolidine-1-carbonyl)-benzoyl)-4-(((1S,2R)-2-phenylcyclopropyl)carbamoyl)-pyrrolidine-3-carboxamido)-dodecyl 1-((tert-butoxy-carbonyl)amino)cyclopropanecarboxylate]",–,–,–,–,–,220,100,10,5
"CC(C)(C)OC(=O)N[C@@H](Cc1ccccc1)C(=O)OCCCCCCCCCCCCNC(=O)[C@@H]1CN(C(=O)c2ccc(C(=O)N3C[C@@H](C(=O)N[C@H]4C[C@@H]4c4ccccc4)[C@H](C(=O)N[C@H]4C[C@@H]4c4ccccc4)C3)cc2)C[C@H]1C(=O)N[C@H]1C[C@@H]1c1ccccc1 [Compound 63, (S)-12-((3S,4S)-1-(4-((3S,4S)-3,4-Bis(((1S,2R)-2-phenylcyclopropyl)carbamoyl)pyrrolidine-1-carbonyl)-benzoyl)-4-(((1S,2R)-2-phenylcyclopropyl)carbamoyl)-pyrrolidine-3-carboxamido)-dodecyl 2-((tert-butoxy-carbonyl)amino)-3-phenylpropanoate]",–,–,–,–,–,220,100,40,40

# The next lines start with results.
EC50 (TLR1/TLR2 [1]; Table 3) [nM],EC50 (TLR1/TLR2 [2]; Table 3) [nM],EC50 (TLR1/TLR2 [1]; Table 4) [nM],reduction in activity relative to diprovocim-1 (TLR1/TLR2 [2]),EC50 (TLR1/TLR2 [2]; Table 4) [nM],SMILES,Emax (TLR1/TLR2 [1]) [%],Emax (TLR1/TLR2 [2]) [%],EC50 (TLR1/TLR2 [1]; Table 5) [nM],EC50 (TLR1/TLR2 [2]; Table 5) [nM]
2,0.26,–,–,–,"Nc1ccc(COCCCCCCCCCCCCNC(=O)[C@@H]2CN(C(=O)c3ccc(C(=O)N4C[C@@H](C(=O)N[C@H]5C[C@@H]5c5ccccc5)[C@H](C(=O)N[C@H]5C[C@@H]5c5ccccc5)C4)cc3)C[C@H]2C(=O)N[C@H]2C[C@@H]2c2ccccc2)cc1 [Compound 52, (3S,4S)—N^3-(12-((4-Aminobenzyl)oxy)dodecyl)-1-(4-((3S,4S)-3,4-bis(((1S,2R)-2-phenyl-cyclopropyl)carbamoyl)pyrrolidine-1-carbonyl)-benzoyl)-N^4-((1S,2R)-2-phenylcyclopropyl)pyrrolidine-3,4-dicarboxamide]",130,90,–,–
5.3,0.59,–,–,–,"C#CCN(C)CC(=O)OCCCCCCCCCCCCNC(=O)[C@@H]1CN(C(=O)c2ccc(C(=O)N3C[C@@H](C(=O)N[C@H]4C[C@@H]4c4ccccc4)[C@H](C(=O)N[C@H]4C[C@@H]4c4ccccc4)C3)cc2)C[C@H]1C(=O)N[C@H]1C[C@@H]1c1ccccc1 [Compound 53, 12-((3S,4S)-1-(4-((3S,4S)-3,4-Bis(((1S,2R)-2-phenylcyclopropyl)carbamoyl)pyrrolidine-1-carbonyl)-benzoyl)-4-(((1S,2R)-2-phenylcyclopropyl)carbamoyl)-pyrrolidine-3-carboxamido)dodecyl 2-(methyl(prop-2-yn-1-yl)amino)acetate]",100,40,–,–
4.9,0.29,–,–,–,"C#CCOCC(=O)OCCCCCCCCCCCCNC(=O)[C@@H]1CN(C(=O)c2ccc(C(=O)N3C[C@@H](C(=O)N[C@H]4C[C@@H]4c4ccccc4)[C@H](C(=O)N[C@H]4C[C@@H]4c4ccccc4)C3)cc2)C[C@H]1C(=O)N[C@H]1C[C@@H]1c1ccccc1 [Compound 54, 12-((3S,4S)-1-(4-((3S,4S)-3,4-Bis(((1S,2R)-2-phenylcyclopropyl)carbamoyl)pyrrolidine-1-carbonyl)benzoyl)-4-(((1S,2R)-2-phenylcyclopropyl)-carbamoyl)pyrrolidine-3-carboxamido)dodecyl 2-(prop-2-yn-1-yloxy)acetate]",110,30,–,–
–,–,3.4,two-fold reduction in activity,0.26,"CC(C)(C)OC(=O)NCCOCCOCCOCCOCCC(=O)OCCCCCCCCCCCCNC(=O)[C@@H]1CN(C(=O)c2ccc(C(=O)N3C[C@@H](C(=O)N[C@H]4C[C@@H]4c4ccccc4)[C@H](C(=O)N[C@H]4C[C@@H]4c4ccccc4)C3)cc2)C[C@H]1C(=O)N[C@H]1C[C@@H]1c1ccccc1 [Compound 55, 12-((3S,4S)-1-(4-((3S,4S)-3,4-Bis(((1S,2R)-2-phenyl-cyclopropyl)carbamoyl)pyrrolidine-1-carbonyl)-benzoyl)-4-(((1S,2R)-2-phenylcyclopropyl)carbamoyl)-pyrrolidine-3-carboxamido)-dodecyl 2,2-dimethyl-4-oxo-3,8,11,14,17-pentaoxa-5-azaicosan-20-oate]",150,90,–,–
–,–,21,–,2.8,"CC(C)(C)OC(=O)CCOCCOCCOCCNC(=O)CCCCCCCCCCCNC(=O)[C@@H]1CN(C(=O)c2ccc(C(=O)N3C[C@@H](C(=O)N[C@H]4C[C@@H]4c4ccccc4)[C@H](C(=O)N[C@H]4C[C@@H]4c4ccccc4)C3)cc2)C[C@H]1C(=O)N[C@H]1C[C@@H]1c1ccccc1 [Compound 56, tert-Butyl 1-((3S,4S)-1-(4-((3S,4S)-3,4-bis(((1S,2R)-2-phenylcyclopropyl)carbamoyl)pyrrolidine-1carbonyl)benzoyl)-4-(((1S,2R)-2-phenylcyclopropyl)-carbamoyl)pyrrolidin-3-yl)-1,14-dioxo-18,21,24-trioxa-2,15-diazaheptacosan-27-oate]",140,100,–,–
